Data on three compounds can be found in patent US9725415B2, “Process for the preparation of 5-fluoro-1H-pyrazoles” (BAYER CROPSCIENCE AKTIENGESELLSCHAFT, priority 2013, dated 2017).

The series in a line: log P determination by HPLC on a phase inversion column (C18), EEC Directive 79/831 Annex V.A8. The class given is physicochemical. The following applies: HPLC-MS method a): C18 column, gradient 10% to 95% acetonitrile (0.1% formic acid) / water (0.09% formic acid), oven 55° C.

Regarding `Cn1nc(C(F)(F)C(F)(F)F)c(C(F)(F)F)c1C(=O)Nc1ccc(Cl)c(C(=O)NCc2ccccc2)c1` [Compound (IIa), N-[4-chloro-3-(benzylcarbamoyl)phenyl]-1-methyl-3-(pentafluoroethyl)-4-(trifluoromethyl)-1H-pyrazole-5-carboxamide], the chromatographic logP (usually lipophilicity estimated from chromatographic retention) was found to be 3.9.

In turn, `Cn1nc(C(F)(F)C(F)(F)F)c(C(F)(F)F)c1-n1cc(Br)cn1` [Intermediate (12), 4-bromo-2′-methyl-5′-(pentafluoroethyl)-4′-(trifluoromethyl)-2′H-1,3′-bipyrazole] had a chromatographic logP of 4.14.

`Cn1nc(C(F)(F)C(F)(F)F)c(C(F)(F)F)c1-n1cc(-c2ccc(Cl)c(C(=O)NC3(C#N)CC3)c2)cn1` [Compound (IIIa), 2-Chloro-N-1-cyano-cyclopropyl-5-[2′-methyl-5′-(pentafluoroethyl)-4′-(trifluoromethyl)-2′H-1,3′-bipyrazol-4-yl]benzamide] came in with a chromatographic logP of 3.72.
